Reference: ChEMBL document CHEMBL1159386, “New bioactive coumarins from Kielmeyera albopunctata” (2003)
Converted amounts (≈) assume the structure as drawn.

Legend:
Format in all cases: functional
[1] = system: LNCaP; assay: Cytotoxicity against human LNCAP cells; conditions: read-out: ED50 (the source's name)
[2] = system: Trypanosoma cruzi; assay: Antitrypanosomal activity against Trypanosoma cruzi trypomastigotes assessed as parasite lysis 500 ug/mL after 24 hrs
[3] = system: Col2; assay: Cytotoxicity against human Col2 cells; conditions: read-out: ED50 (the source's name)
[4] = system: Lu1; assay: Cytotoxicity against human Lu1 cells; conditions: read-out: ED50 (the source's name)
[5] = system: KB; assay: Cytotoxicity against human KB cells; conditions: read-out: ED50 (the source's name)
[6] = system: Trypanosoma cruzi; assay: Antitrypanosomal activity against Trypanosoma cruzi trypomastigotes assessed as parasite lysis 125 ug/mL after 24 hrs
[7] = system: Trypanosoma cruzi; assay: Antitrypanosomal activity against Trypanosoma cruzi trypomastigotes assessed as parasite lysis 7.5 ug/mL after 24 hrs

CC(C)=CCc1c(O)c(C(=O)CC(C)CO)c2oc(=O)cc(-c3ccccc3)c2c1O (stereo not given)
EC50 [1]: 15.9 µg/mL (≈ 37.6 µM)
Activity [2]: 98%
EC50 [3]: 17.4 µg/mL (≈ 41.2 µM)
EC50 [4]: 19.8 µg/mL (≈ 46.9 µM)
EC50 [5]: 17.7 µg/mL (≈ 41.9 µM)

CCC(C)c1cc(=O)oc2c(C(=O)CC(C)CO)c(O)c(CC=C(C)C)c(O)c12 (stereo not given)
EC50 [1]: 14 µg/mL (≈ 34.8 µM)
Activity [2]: 100%
EC50 [3]: 13.1 µg/mL (≈ 32.5 µM)
Activity [6]: 80%
EC50 [4]: 19.4 µg/mL (≈ 48.2 µM)
EC50 [5]: 15.8 µg/mL (≈ 39.3 µM)

CCC(C)c1cc(=O)oc2c(C(=O)CC(C)CO)c(O)c3c(c12)OC(C(C)(C)O)C3 (stereo not given)
EC50 [1]: > 20 µg/mL
EC50 [3]: > 20 µg/mL
EC50 [4]: > 20 µg/mL
EC50 [5]: > 20 µg/mL

Cc1c2ccncc2c(C)c2c1[nH]c1ccccc12 [ELLIPTECINE]
EC50 [1]: 0.8 µg/mL (≈ 3.25 µM)
EC50 [3]: 0.3 µg/mL (≈ 1.22 µM)
EC50 [4]: 0.02 µg/mL (≈ 0.0812 µM)
EC50 [5]: 0.04 µg/mL (≈ 0.162 µM)

CN(C)c1ccc(C(=C2C=CC(=[N+](C)C)C=C2)c2ccc(N(C)C)cc2)cc1.[Cl-] [GENTIAN VIOLET]
Activity [7]: 50%
